# According to US6632906B1, “Adhesives” (Strakan Limited, priority 1999, dated 2003):
# Tests used:
# Type in all cases: physicochemical
# [1] = Bakelite 180° peel strength test
# Protocol: Peel strength was measured by coating each sample onto a PET strip 25 mm wide and 100 mm long and applying the strip to a bakelite plate. Then, a roller having a load of 300 g is rolled back and forth thereon to secure the sample to the plate. The sample is subsequently peeled off at an angle of 180° at a rate of 300 mm/min. to determine peel force. Unless otherwise specified, peel force is measured herein by this test.
# In this Example, PET strips were 20 mm in width. In the adhesive of Example 1, adipic acid diamine was dissolved in methanol+water (19:1 by volume) to a concentration of 0.5%.
# The Nitto Adhesive was dissolved in ethyl acetate. The cross-linking agent (aluminium tri-acetylacetonate) was dissolved in acetylacetone+ethylacetate (1:1 by volume) solution to a concentration of 0.5%.
# IPM was used as plasticiser for both. Heating was at 80° C. for 20 minutes in both cases.
# [2] = Saturation concentration of drugs in adhesives (crystallisation); set-up: key: No crystallisation. Drug is dissolved; ¦: Crystallisation; settings: IPM 1.0 g
# Excerpt: Oestradiol (a hydrophobic drug) and piroxicam (a hydrophilic drug), were investigated to establish their saturation concentrations in the two adhesives. As before, formulations 3 in each of Tables 9 and 10 were used.
# [3] = Stability of drug-containing patches, adhesive of the invention; settings: 6 days at 60° C.
# Protocol: The mixed solutions were coated onto PET film and heated at 80° C. for 20 minutes. The content of drug was determined both immediately after preparation and after storage at 6 days at 60° C.
# [4] = Stability of drugs in Nitto adhesive
# Protocol: The mixed solutions were coated onto PET film and heated at 80° C. for 20 minutes. The content of drug was determined immediately after preparation and after storage for 6 days at 60° C.
# [5] = Adhesive B from Example 11, diethylene triamine 20 mg as cross-linker
# [6] = allyl acetoacetate polymer of Example 9, 0.8 g of plasticiser, adipic acid diamine cross-linked
# [7] = Nitto Adhesive 1.0 g, cross-linker 10 mg, drug 40
# [8] = Nitto Adhesive 1.0 g, cross-linker 10 mg, drug 50
# [9] = Nitto Adhesive 1.0 g, cross-linker 10 mg, drug 75
SMILES,"Adhesion strength [1, 5]","Adhesion strength [1, 6]","Crystallisation [2, 7]","Crystallisation [2, 8]","Crystallisation [2, 9]",deterioration of drug content after storage [3],also measured
"CCCCCCCCCCCCCC(=O)OC(C)C [IPM, isopropyl myristate]",30 g/25 mm,80 g/20 mm,,,,,
"CCCCCCCC/C=C\CCCCCCCC(=O)OC [MO, methyl oleate]",35 g/25 mm,95 g/20 mm,,,,,
CN1C(C(=O)Nc2ccccn2)=C(O)c2ccccc2S1(=O)=O [Piroxicam],,,¦,¦,¦,no measurable deterioration,"Crystallisation ([2]; Adhesive of invention 1.0 g, cross-linker 3.0 mg, drug 50): ¦; Crystallisation ([2]; Adhesive of invention 1.0 g, cross-linker 3.0 mg, drug 75): ¦; stability of drug ([4]; during the preparation process and after heating 60° C. for 6 days): stable"

# Further lines, with some results ahead:
"Adhesion strength [1, 5]","Adhesion strength [1, 6]","Crystallisation [2, 7]","Crystallisation [2, 8]","Crystallisation [2, 9]",deterioration of drug content after storage [3],SMILES,also measured
,,¦,¦,¦,,C[C@]12CC[C@@H]3c4ccc(O)cc4CC[C@H]3[C@@H]1CC[C@@H]2O [oestradiol],"Crystallisation ([2]; Adhesive of invention 1.0 g, cross-linker 3.0 mg, drug 120 mg): ¦; Crystallisation ([2]; Adhesive of invention 1.0 g, cross-linker 3.0 mg, drug 150 mg): ¦"
,,,,,no measurable deterioration,C=C1CC[C@H](O)C/C1=C/C=C1\CCC[C@]2(C)[C@@H]([C@H](C)/C=C/[C@H](C)C(C)C)CC[C@@H]12 [vitamin D2],"decomposed further during the 6 day storage period ([4]; 6 days at 60° C.): 20%; decomposed during the preparation process ([4]; coated onto PET film, 80° C. for 20 minutes): ca. 30%"
